“And” between values parts separate entries of the source, which are not always exact repeats. Equal values may be shown once. “Also recorded” adds a separate entry of the source.
Experiments:
PMP70 = assay: Semi-quantitative RT-PCR in primary fibroblasts; format: cell-based, human; conditions: X-ALD or normal primary fibroblasts, 5 mM 4-PBA for 2 days
Procedure: (§1) Semi-quantitative RT-PCR was done on the mRNA isolated from these cells (FIG. 1). […] In addition, the expression of acyl-CoA oxidase (AOX), the rate-limiting enzyme in VLCFA β-oxidation, was not affected. Although previous studies have reported that ALDR mRNA was not detectable in fibroblasts by either northern or RT-PCR analyses, those RT-PCR studies used about 66 ng of CDNA; we used about 250 ng of cDNA.
(§2) Semi-quantitative RT-PCR analysis. Total RNA from tissue culture cells (10^6-10^7 cells/sample) was isolated using TRizol Reagent™ (Life Technologies), treated with DNase I (100-200 units in 40 mM HCI, 10 mM NaCl, 6 mM MgCl2, pH 7.3), incubated at 37° C. for 30 min, extracted with phenol/chloroform, and precipitated with isopropanol. cDNA was generated using MMLV reverse transcriptase (RT) (Life Technologies). PCR was done in the linear range of amplification (determined for each primerpair-cDNA combination). For each cDNA sample, a ‘cocktail’ was prepared, containing PCR buffer (Promega), 200 µM of each DNTP, 1.5 mM MgCl2, 250 ng cDNA, 0.25 U of Taq polymerase (Promega) and […]. The ‘cocktail’ was divided into separate tubes containing cDNA specific primers.
(§3) Primers. The PCR primers used are listed below. In the parentheses, h indicates human and m, mouse; this is followed by the gene name, product size and annealing temperature. For primer sequences, F is forward and R is reverse. […]

ALDP = assay: Semi-quantitative RT-PCR in primary fibroblasts; format: cell-based, human; conditions: normal primary fibroblasts, 5 mM 4-PBA for 2 days
Procedure: as §1, §2, §3

PMP69 = assay: Semi-quantitative RT-PCR in primary fibroblasts; format: cell-based, human; conditions: X-ALD or normal primary fibroblasts, 5 mM 4-PBA for 2 days
Procedure: as §1, §2, §3

ALDR mRNA = assay: Semi-quantitative RT-PCR in primary fibroblasts; format: cell-based; conditions: 5 mM 4-PBA for 2 days
Procedure: as §1, §2
Primers. The PCR primers used are listed below. In the parentheses, h indicates human and m, mouse; this is followed by the gene name, product size and annealing temperature. […]

[1] = system: human primary fibroblasts; assay: Phytanic acid oxidation ([2,3-3H]-phytanic acid, release of 3H-H2O); format: cell-based; conditions: 5 mM 4-PBA for 10 days
Source text: The increase in phytanic acid oxidation activity was significant (P<0.001 5(n=4) for X-ALD primary fibroblasts and P<0.013 (n=3) for normal primary fibroblasts). […] The relative amount of SCP2 protein was compared to the housekeeping gene β-actin.
Phytanic acid oxidation occurs exclusively in the peroxisomal matrix and can therefore serve as a marker for peroxisomal function. […] SCP2 is a 15-kDa protein located exclusively in the peroxisomal matrix.
(§4) Biochemical measurements. […] For VLCFA measurements, total lipids were extracted, converted to methyl esters, purified by TLC and subjected to capillary GC analysis as described. Duplicate assays were set up independently and were assayed on different days. C24:0 β-oxidation activity of human and mouse fibroblasts and human lymphoblastoid cells was determined by measuring their capacity to degrade [1-^14C]-C24:0 fatty acid (American Radiolabeled Chemicals, St Louis, Mo.) to water-soluble products as described. Phytanic acid oxidation was measured as described. Cells were incubated with [2,3-^3H]-phytanic acid for 24 hours, and the release of ^3H-H2O to the aqueous medium was determined (activity in pmol/hr per mg protein).

[2] = system: X-ALD human primary fibroblasts; assay: C24:0 β-oxidation activity ([1-14C]-C24:0 to water-soluble products); format: cell-based
Procedure: (§5) Human Tibroblast C24:0 β-oxidation increased from 25% to 48% of normal; human lymphobfastoid cells, from 18% to 53% of normal; and mouse fibroblasts, from 15% to 29% of normal. […] There are several possible mechanisms that could account for the action of 4-PBA in X-ALD.
(§6) Cell culture and 4-PBA treatment. Cell lines derived from X-ALD patients and X-ALD mice were grown in MEM (fibroblasts) or RPMI (ymphoblastoid cells) supplemented with fetal calf serum (10%), penicillin (100 U/ml), streptomycin (100 U/mi) and glutamine (2 mM). […] Cells in the second flask were grown without drug for the same length of time and served as controls. The media were changed every 3-4 days.
as §4

[3] = system: X-ALD human lymphoblastoid cells; assay: as above; format: cell-based; conditions: 5 mM 4PBA for 6 days
Procedure: as §5, §6, §4

[4] = system: X-ALD mouse primary fibroblasts; assay: as above; format: cell-based; conditions: 5 mM 4PBA for 6 days
Procedure: as §5, §6, §4

X-ALD mice = assay: In vivo efficacy: VLCFA levels in brain and adrenal glands after dietary 4-PBA; design: species or system mouse
Procedure: To measure the in vivo efficacy of 4-PBA, we supplemented mouse chow and water with 4-PBA.
AMN and Addison-only. […] In vivo delivery of 4-PBA to X-ALD mice. 4-PBA was delivered to X-ALD mice in their regular chow and water. 4-PBA chow was prepared by B'OServ (Holton Industries, Frenchtown, N.J.). […] Brains and adrenal glands from normal LD and X-ALD/4-PBA mice were collected for VLCFA analysis as described.
as §4

O=C(O)CCCc1ccccc1 [4-PBA, 4-Phenyl butyrate]
PMP70 expression level (PMP70): little, if any, effect
ALDP expression (mRNA) (ALDP): little, if any, effect
PMP69 expression level (PMP69): little, if any, effect
ALDR mRNA levels (ALDR mRNA; normal and X-ALD human primary fibroblasts): substantial increase
ALDR mRNA levels (ALDR mRNA; normal and X-ALD mouse primary fibroblasts): substantial increase
phytanic acid oxidation ([1]; X-ALD human primary fibroblasts): twofold increase
phytanic acid oxidation ([1]; normal human primary fibroblasts): twofold increase
increase in C24:0 β-oxidation ([2]; 5 mM 4-PBA for 6 days, all X-ALD cell lines tested (human and mouse)): twofold to threefold increase
C24:0 β-oxidation, Increase (treated vs untreated) ([2]; 5 mM 4PBA for 6 days): 1.95 fold
C24:0 β-oxidation, Increase (treated vs untreated) [3]: 2.92 fold
C24:0 β-oxidation, Increase (treated vs untreated) [4]: 1.87 fold
adrenal gland VLCFA (C24:0 and C26:0) levels (X-ALD mice; dietary 4-PBA for 4 weeks): substantial reduction
brain VLCFA (C24:0 and C26:0) levels (X-ALD mice; dietary 4-PBA for 4 weeks): substantial reduction
correction of brain C24:0 level (X-ALD mice; dietary 4-PBA for 6 weeks): complete correction; also recorded: complete normalization
correction of brain C26:0 level (X-ALD mice; dietary 4-PBA for 6 weeks): 78% and 80%

Source: patent US6458838B1, “Adrenoleukodystrophy treatments” (Johns Hopkins University, priority 1999, dated 2002)
